Here are results for two compounds from patent US20050203079A1, “Compounds having affinity at 5ht2C receptor and use thereof in therapy” (GLAXO GROUP LIMITED, priority 2002, published 2005).

Counter-ions that a name gives are not always drawn.

In turn, `COc1ccc(N2CC=C(c3cccc(Cl)c3)C2=O)cc1OCCN1CCC(C)CC1.Cl` came in with a melting point of 99 to 101 °C. With `COc1ccc(N2CC=C(c3ccc(F)cc3)C2=O)cc1OCCN1CCCCC1` (as salt: hydrochloride) the figure was 207 to 209 °C.
